In patent US8273357B2, “Antigen-carbohydrate conjugates” (Massachusetts Institute of Technology, priority 2004, dated 2012):

What was measured:
DC-SIGN = biological target: T1, DC-SIGN (Homo sapiens, UniProt Q9NNX6); conditions: carbohydrate profiling by another group; cited from earlier work
T1 sequence (Q9NNX6 1-404): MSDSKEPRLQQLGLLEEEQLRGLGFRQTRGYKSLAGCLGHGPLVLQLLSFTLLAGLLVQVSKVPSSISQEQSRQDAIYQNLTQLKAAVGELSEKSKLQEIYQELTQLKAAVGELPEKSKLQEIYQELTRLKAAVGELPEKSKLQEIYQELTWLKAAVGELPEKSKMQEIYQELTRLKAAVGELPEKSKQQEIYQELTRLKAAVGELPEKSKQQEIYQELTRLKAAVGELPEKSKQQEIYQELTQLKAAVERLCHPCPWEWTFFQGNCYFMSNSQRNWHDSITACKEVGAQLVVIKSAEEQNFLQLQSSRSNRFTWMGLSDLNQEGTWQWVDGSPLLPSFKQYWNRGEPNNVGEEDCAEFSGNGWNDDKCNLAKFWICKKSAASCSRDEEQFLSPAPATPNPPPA

[1] = tested on: CD11c+ dendritic cells / OTII T cells; assay: Antigen presentation assay, purified CD11c+ dendritic cells and purified OTII T cells; type: cell-based, mouse
Description: FIGS. 4A, 4B, 4C and 4D are graphs showing that CD11c^+ dendritic cells are the main antigen presenting cells presenting 3-1-targeted antigen. […] 1.5×10^4 Splenic CD11c^+ dendritic cells purified from C57BL/6 mice and 3.0×10^4 purified OTII T cells were incubated with OVA (starting concentration 300 μg mL^−1) or (OVA)-3-1 (starting concentration 25 μg mL^−1) in graded doses for eight-four hours with [^3H]thymidine (1 μCi) added for the last twelve hours. […] Purified CD11c^+ dendritic cells and OTII T cells were incubated with (OVA)-3-1 (25 μg mL^−1)±each potential inhibitor (100 μg mL^−1). T cell proliferation was determined as for FIG. 4A. […] CD11c^+ dendritic cells and OTII T cells were incubated with OVA or (OVA)-3-1±lipopolysaccharide ([…]). Also included are all ‘non-dendritic cells’ (macrophages and B cells) obtained during the purification of the dendritic cells. T cell proliferation was determined as described in FIG. 4A. […] Supernatants from cells described in FIG. 4C were collected at forty-eight and seventy-two hours and measured for IFN-γ by ELISA; the values presented are from the seventy-two hour time point. All measurements here were performed in triplicate.
To confirm that the increased T cell proliferation observed with (OVA)-3-1 was due to the selective uptake of this conjugate by dendritic cells and not B cells or macrophages, purified CD11c^+ dendritic cells were prepared from wild-type C57BL/6 mice and the OVA-specific T cells from transgenic OTII mice (see Materials & Methods). The in vitro antigen presentation assays described above were then repeated. […] By comparison, >50-fold more unmodified OVA was required to obtain similar levels of T cell proliferation. When B cells and macrophages were used as antigen-presenting cells in place of purified dendritic cells, the resulting T cell responses were negligible (FIG. 4C), providing strong confirmation that CD11c^+ dendritic cells are the main antigen-presenting cells mediating uptake and presentation of (OVA)-3-1 to OTII T cells.
(§1) Pooled inguinal lymph nodes were dissociated in 10% Fetal Bovine Serum RPMI (supplemented with 2 mM L-glutamine) and either mechanically dissociated between two glass slides or, to improve the overall cell yield, incubated in the presence of collagenase (Boehringer) and EDTA for 25 minutes at 37° C./5% CO2 to dissociate DC-T cell clusters. For antigen presentation assays with whole splenocytes, isolated spleens were injected with collagenase/EDTA, gently teased apart and incubated as described above. Splenocytes were cultured in 96-well round-bottom plates at a density of 3×10^5 cells/0.2 mL. In antigen presentation assays utilizing purified dendritic cells and T cells, dendritic cells were isolated from the spleens of C57BL/6 mice following collagenase/EDTA treatment by labeling the dendritic cells with commercially available magnetic microbeads linked to an anti-CD11c^+ antibody (Miltenyi Biotec, Bergisch Gladbach, Germany) (according to the Miltenyi Biotec protocol) and separating labeled Dendritic cells from non-dendritic cells by application of a magnetic field. Similarly, purified […] T cells were obtained from spleens of OTII transgenic mice using magnetic beads Dynal (Oslo, Norway). Purified dendritic cells and T cells were seeded onto 96-well plates round-bottom Plates at a 1:2 DC:T cell ratio unless stated otherwise in the Figures.

[2] = tested on: OTII (CD4+) T cells in unfractionated splenocytes; assay: Antigen presentation assay, unfractionated OTII splenocytes, [3H]thymidine T cell proliferation; type: cell-based, mouse; conditions: OTII splenocytes
Description: FIG. 2B is a graph showing that oligosaccharide modification of OVA elicits stronger presentation to OTII T cells than unmodified OVA. Unfractionated OTII splenocytes (3×10^5/well) were incubated with graded doses of OVA or oligosaccharide-modified OVA for eighty-four hours with [^3H]thymidine (1 μCi) added for the last 12 hours. Thereafter [^3H]thymidine incorporation levels were measured and plotted. FIG. 2C is a graph showing that observed enhancements in antigen presentation of (OVA)-3-1 to T cells is carbohydrate dependent. Splenocytes were incubated with antigen as in (B)±(BSA)-3-1 (10 μg mL^−1). In cases where (OVA)-3-1 was added to OVA wells to assess the possibility of direct activation of T cells (see text), (OVA)-3-1 was present at 50 ng mL^−1; incubations were performed for seventy-two hours with [^3H]thymidine (1 μCi) added for the last 12 hours. FIG. 2D is a graph showing that the receptor mediated uptake of (OVA)-3-1 has a different binding profile than that observed for DC-SIGN. Unfractionated splenocytes were incubated with OVA or (OVA)-3-1±mBSA or Lewis^x-BSA (each at 100 μg mL^−1). Incubations were performed for seventy-two hours with [^3H]thymidine (1 μCi) added for the last twelve hours. All values reported are the mean of triplicate measurements.
The ability of these conjugates to enhance antigen uptake by dendritic cells was assessed in comparison to unmodified OVA by incubating graded doses of conjugate and OVA with unfractionated splenocytes (containing T cells, B cells, dendritic cells, macrophages) isolated from OTII (CD4^+) transgenic mice. The ability of dendritic cells to present antigenic peptides derived from targeted proteins was measured as a function of T cell proliferation in response to those presented peptides. T cell proliferation is quantified by [^3H]thymidine incorporation during cellular division.
as §1

[3] = biological target: T2, (OVA)-3-1, ovalbumin conjugated to the synthetic high-mannose nonasaccharide 3-1 (fluorophore-labeled in the … (UniProt P01012 2-386, average of three saccharides of structure 3-1 per molecule of OVA, coupled through the Sulfo-SMCC maleimide crosslinker to the thiol-bearing linker of the saccharide (sites not given); fluorophore …); assay: binding and internalization of fluorophore-labeled (OVA)-3-1 on a cell line stably expressing CIRE
T2 construct: Neoglycoprotein; also called fluorophore-labeled (OVA)-3-1; carbohydrate-OVA conjugate
T2 sequence (looked up): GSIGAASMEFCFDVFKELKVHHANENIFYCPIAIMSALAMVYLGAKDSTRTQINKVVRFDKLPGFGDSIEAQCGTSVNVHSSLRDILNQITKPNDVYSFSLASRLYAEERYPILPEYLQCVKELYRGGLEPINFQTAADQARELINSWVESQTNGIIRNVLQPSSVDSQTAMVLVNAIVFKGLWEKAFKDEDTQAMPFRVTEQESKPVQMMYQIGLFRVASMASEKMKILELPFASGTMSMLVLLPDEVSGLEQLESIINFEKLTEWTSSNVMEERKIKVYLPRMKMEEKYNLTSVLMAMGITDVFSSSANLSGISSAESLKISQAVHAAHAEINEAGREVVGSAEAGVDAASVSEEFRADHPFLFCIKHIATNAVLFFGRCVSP
Description: (§2) To identify the receptor mediating uptake of the oligosaccharides employed herein, the murine DC-SIGN homolog CIRE[10] was analyzed as a potential receptor; a cell line stably expressing this lectin was used to assay for binding and internalization of fluorophore-labeled 3-1 and fluorophore-labeled (OVA)-3-1. […] The receptor may be identified biochemically, for example, by cross-linking it to bound (OVA)-3-1 and immunoprecipitating the complex with polyclonal sera raised against ovalbumin. Identification of the receptor would enable the determination of its human homolog.

CIRE = biological target: T3, CIRE (Mus musculus, UniProt Q91ZX1); assay: Binding and internalization by a cell line stably expressing CIRE; type: cell-based, murine
T3 construct: expressed in transfected cells
T3 sequence (Q91ZX1 1-238): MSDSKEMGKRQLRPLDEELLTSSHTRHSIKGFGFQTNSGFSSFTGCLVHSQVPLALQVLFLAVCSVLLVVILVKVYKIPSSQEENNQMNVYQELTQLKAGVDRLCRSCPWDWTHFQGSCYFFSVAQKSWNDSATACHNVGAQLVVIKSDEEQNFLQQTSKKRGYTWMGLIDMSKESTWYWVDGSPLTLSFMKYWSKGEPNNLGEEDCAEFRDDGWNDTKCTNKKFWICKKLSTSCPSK
Description: as §2, with “CIRE^10” for “CIRE[10]”

[4] = (OVA)-3-1 25 μg mL^−1, inhibitor 100 μg mL^−1

Q: Which “recognition by DC-SIGN” value (DC-SIGN) does the source give for `CC(=O)N[C@H]1C(O)O[C@H](CO)[C@@H](O[C@@H]2O[C@H](CO)[C@H](O)[C@H](O)[C@H]2O)[C@@H]1O[C@@H]1O[C@@H](C)[C@@H](O)[C@@H](O)[C@@H]1O` (stereo partly drawn) [Lewis^x, reference compound] here?
A: can recognize

Q: What about the “inhibitory effect on (OVA)-3-1 presentation by dendritic cells” value [1, 4] of the same molecule?
A: marginal effects

Q: With “bovine serum albumin [BSA, reference compound]” as the molecule, how does the “effect of co-incubated protein on (OVA)-3-1 uptake / OTII proliferation” value ([2]; (BSA)-3-1 10 μg mL^−1, 72 h) read?
A: did not affect

Q: Which results are given for “invertase: high-mannose-bearing glycoprotein [reference compound]”?
A: reduction (inhibition) of (OVA)-3-1 presentation [1, 4]: 18%; concentration giving inhibition of (OVA)-3-1 presentation ([1]; similar level of inhibition as mannose): 0.5 µM

Q: Which “reduction (inhibition) of (OVA)-3-1 presentation” value [1, 4] does the source give for mannan [reference compound] here?
A: 31%

B1: CIRE, murine DC-SIGN homolog (receptor)
chain: MSDSKEMGKRQLRPLDEELLTSSHTRHSIKGFGFQTNSGFSSFTGCLVHSQVPLALQVLFLAVCSVLLVVILVKVYKIPSSQEENNQMNVYQELTQLKAGVDRLCRSCPWDWTHFQGSCYFFSVAQKSWNDSATACHNVGAQLVVIKSDEEQNFLQQTSKKRGYTWMGLIDMSKESTWYWVDGSPLTLSFMKYWSKGEPNNLGEEDCAEFRDDGWNDTKCTNKKFWICKKLSTSCPSK
Q: Does B1 bind [3]?
A: no binding

B2: (OVA)-3-7: ovalbumin conjugate of monosaccharide galactose 3-7 (conjugate, UniProt P01012 2-386, looked up)
Ovalbumin: GSIGAASMEFCFDVFKELKVHHANENIFYCPIAIMSALAMVYLGAKDSTRTQINKVVRFDKLPGFGDSIEAQCGTSVNVHSSLRDILNQITKPNDVYSFSLASRLYAEERYPILPEYLQCVKELYRGGLEPINFQTAADQARELINSWVESQTNGIIRNVLQPSSVDSQTAMVLVNAIVFKGLWEKAFKDEDTQAMPFRVTEQESKPVQMMYQIGLFRVASMASEKMKILELPFASGTMSMLVLLPDEVSGLEQLESIINFEKLTEWTSSNVMEERKIKVYLPRMKMEEKYNLTSVLMAMGITDVFSSSANLSGISSAESLKISQAVHAAHAEINEAGREVVGSAEAGVDAASVSEEFRADHPFLFCIKHIATNAVLFFGRCVSP
modifications: carbohydrate conjugate
Q: Which “enhancement of antigen uptake and presentation to T cells (T cell proliferation) compared to unmodified OVA” value ([2]; graded doses) does the source give for B2 here?
A: did not promote increased presentation at all

B3: fluorophore-labeled (OVA)-3-1: fluorophore-labeled (OVA)-3-1 (conjugate)
chain: GSIGAASMEFCFDVFKELKVHHANENIFYCPIAIMSALAMVYLGAKDSTRTQINKVVRFDKLPGFGDSIEAQCGTSVNVHSSLRDILNQITKPNDVYSFSLASRLYAEERYPILPEYLQCVKELYRGGLEPINFQTAADQARELINSWVESQTNGIIRNVLQPSSVDSQTAMVLVNAIVFKGLWEKAFKDEDTQAMPFRVTEQESKPVQMMYQIGLFRVASMASEKMKILELPFASGTMSMLVLLPDEVSGLEQLESIINFEKLTEWTSSNVMEERKIKVYLPRMKMEEKYNLTSVLMAMGITDVFSSSANLSGISSAESLKISQAVHAAHAEINEAGREVVGSAEAGVDAASVSEEFRADHPFLFCIKHIATNAVLFFGRCVSP
Q: Which “binding and internalization by CIRE-expressing cell line” value (CIRE) does the source give for B3 here?
A: did not reveal any interactions
